Experiments:
[1] = Cytotoxicity against mouse L5178B1 cells transfected with pHa MDR1/A retrovirus assessed as reduction in cell viability after 72 hrs by MTT assay; format: functional, cell-based; conditions: MDR1, 72 h
[2] = Cytotoxicity against mouse L5178 cells assessed as reduction in cell viability after 72 hrs by MTT assay; format: functional, cell-based; conditions: L5178, 72 h
[3] = Antioxidant activity assessed as hydroxyl radical scavenging activity by measuring inhibition of damage to 2-deoxy-D-ribose after 3 mins by TBA-based Fenton reaction assay; format: functional

In the case of O=Cc1ccc(O)cc1 [4-HYDROXYBENZALDEHYDE], the IC50 [1] is reported as > 150 µM and the IC50 [2] is reported as > 150 µM.
CC(C)(C)/[N+]([O-])=C/c1ccc(S(=O)(=O)O)cc1S(=O)(=O)O gave an IC50 [3] of 1830 µM.
COC(=O)/C=C/c1ccc(O)c(O)c1 [METHYLCAFFEATE] showed an IC50 [1] of 113 µM and an IC50 [2] of 104 µM.

— ChEMBL document CHEMBL4422633, “Antioxidant-Inspired Drug Discovery: Antitumor Metabolite Is Formed in Situ from a Hydroxycinnamic Acid Derivative upon Free-Radical Scavenging” (J Med Chem, 2019)
